Measurements as given in patent US5091425A, “5-(heterocyclylalkanoyl)amino-4-hydroxypentanamides” (Imperial Chemical Industries plc, priority 1988, dated 1992).
pIC50: −log10 of the molar value.

Target: T1, partially purified human renin (Homo sapiens, UniProt P00797)
T1 sequence (P00797 67-406): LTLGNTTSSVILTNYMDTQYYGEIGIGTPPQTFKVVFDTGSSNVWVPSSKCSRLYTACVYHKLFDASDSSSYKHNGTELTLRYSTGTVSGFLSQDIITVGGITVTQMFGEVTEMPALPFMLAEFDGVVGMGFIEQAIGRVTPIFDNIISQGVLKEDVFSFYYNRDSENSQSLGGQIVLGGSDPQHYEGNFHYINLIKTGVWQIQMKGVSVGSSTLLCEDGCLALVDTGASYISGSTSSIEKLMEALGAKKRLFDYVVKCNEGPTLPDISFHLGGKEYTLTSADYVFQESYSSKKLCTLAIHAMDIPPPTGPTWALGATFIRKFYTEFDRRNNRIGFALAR
Assay: in vitro inhibition of renin-catalysed angiotensin I generation (radioimmunoassay)
Assay type: biochemical
Conditions: human renin with angiotensinogen; angiotensin I by radioimmunoassay; read-out: IC50 (concentration for 50% inhibition of the renin catalysed reaction)
Experimental: The inhibition of the catalytic activity of renin, and in particular of human renin, may be assessed in vitro using a routine laboratory procedure involving the incubation of a test compound initially at a concentration of 100 micromolar in a buffered mixture containing appropriate concentrations of partially purified human renin and the natural renin substrate angiotensinogen. The formation of the angiotensin known as angiotensin I (which is assayed by a standard radioimmunoassay using procedures well known in the art) is inhibited by those compounds which inhibit the action of renin and the degree of inhibition is readily determined by comparing the angiotensin I generation rate in the presence of the test compound (at the specified test concentration) with the control rate of angiotensin I generation in the absence of the test compound.
In this standard test procedure, compounds which show at least 30% inhibition are retested at lower concentrations to determine their inhibitory potency. For determination of the IC50 (concentration for 50% inhibition of the renin catalysed reaction), concentrations are ordinarily chosen to allow testing over at least four orders of magnitude centred about the predicted approximate IC50, which latter is subsequently determined from a plot of percentage inhibition against concentration of the test compound. […]

CCCCNC(=O)[C@@H](C[C@H](O)[C@H](CC1CCCCC1)NC(=O)C(Cc1cccnc1)c1nnc2c(CCC)nc(-c3cccnc3)cn12)C(C)C (mixture of isomers) [Example 6, (2S,4S,5S)-N-butyl-6-cyclohexyl-4-hydroxy-2-isopropyl-5-[(2RS)-2-(8-propyl-6-(3-pyridyl)-1,2,4-triazolo[4,3-a]pyrazin-3-yl)-3-(3-pyridyl)propionamido]hexanamide]
pIC50: 9.70
